Results published in the supplement of paper PMC11451515.

System: SEM cells
Assay: cell viability relative to DMSO control; higher = less cytotoxic
Details: 48 h
In short: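 NOMO1 or SEM (500 cells/well) or P12-Ichikawa (1000 cells/well) leukemia cells were adapted for at least four passages in each medium. They were seeded in 1536-well plates (5 μl) and pin-dosed with library compounds in DMSO over an 11-point threefold series, 47 μM to 0.79 nM. CellTiter-Glo One luminescence was read after 48 h at 37°C. Viability is the per-plate percentage relative to DMSO wells, with cell-free wells as background.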

[1] = RPMI 5 mM glucose + 10% FBS, 0.000781 µM
[2] = RPMI 5 mM glucose + 10% FBS, 0.00234 µM
[3] = RPMI 5 mM glucose + 10% FBS, 0.00702 µM
[4] = RPMI 5 mM glucose + 10% FBS, 0.0211 µM
[5] = RPMI 5 mM glucose + 10% FBS, 0.0632 µM
[6] = RPMI 5 mM glucose + 10% FBS, 0.19 µM
[7] = RPMI 5 mM glucose + 10% FBS, 0.569 µM
[8] = RPMI 5 mM glucose + 10% FBS, 1.71 µM
[9] = RPMI 5 mM glucose + 10% FBS, 5.12 µM
[10] = RPMI 5 mM glucose + 10% FBS, 15.4 µM
[11] = RPMI 5 mM glucose + 10% FBS, 46.1 µM
[12] = HPLM + 10% dialyzed FBS, 0.000781 µM
[13] = HPLM + 10% dialyzed FBS, 0.00234 µM
[14] = HPLM + 10% dialyzed FBS, 0.00702 µM
[15] = HPLM + 10% dialyzed FBS, 0.0211 µM
[16] = HPLM + 10% dialyzed FBS, 0.0632 µM
[17] = HPLM + 10% dialyzed FBS, 0.19 µM
[18] = HPLM + 10% dialyzed FBS, 0.569 µM
[19] = HPLM + 10% dialyzed FBS, 1.71 µM
[20] = HPLM + 10% dialyzed FBS, 5.12 µM
[21] = HPLM + 10% dialyzed FBS, 15.4 µM
[22] = HPLM + 10% dialyzed FBS, 46.1 µM
[23] = RPMI 5 mM glucose + 10% dialyzed FBS, 0.000781 µM
[24] = RPMI 5 mM glucose + 10% dialyzed FBS, 0.00234 µM
[25] = RPMI 5 mM glucose + 10% dialyzed FBS, 0.00702 µM
[26] = RPMI 5 mM glucose + 10% dialyzed FBS, 0.0211 µM
[27] = RPMI 5 mM glucose + 10% dialyzed FBS, 0.0632 µM
[28] = RPMI 5 mM glucose + 10% dialyzed FBS, 0.19 µM
[29] = RPMI 5 mM glucose + 10% dialyzed FBS, 0.569 µM
[30] = RPMI 5 mM glucose + 10% dialyzed FBS, 1.71 µM
[31] = RPMI 5 mM glucose + 10% dialyzed FBS, 5.12 µM
[32] = RPMI 5 mM glucose + 10% dialyzed FBS, 15.4 µM
[33] = RPMI 5 mM glucose + 10% dialyzed FBS, 46.1 µM

| Structure (SMILES) | cell viability [1] [%] | cell viability [2] [%] | cell viability [3] [%] | cell viability [4] [%] | cell viability [5] [%] | cell viability [6] [%] | cell viability [7] [%] | cell viability [8] [%] | cell viability [9] [%] | cell viability [10] [%] | cell viability [11] [%] | cell viability [12] [%] | cell viability [13] [%] | cell viability [14] [%] | cell viability [15] [%] | cell viability [16] [%] | cell viability [17] [%] | cell viability [18] [%] | cell viability [19] [%] | cell viability [20] [%] | cell viability [21] [%] | cell viability [22] [%] | cell viability [23] [%] | cell viability [24] [%] | cell viability [25] [%] | cell viability [26] [%] | cell viability [27] [%] | cell viability [28] [%] | cell viability [29] [%] | cell viability [30] [%] | cell viability [31] [%] | cell viability [32] [%] | cell viability [33] [%] |
| --- | --- | --- | --- | --- | --- | --- | --- | --- | --- | --- | --- | --- | --- | --- | --- | --- | --- | --- | --- | --- | --- | --- | --- | --- | --- | --- | --- | --- | --- | --- | --- | --- | --- |
| Cc1cccc(-c2nn(C(=S)Nc3ccccc3)cc2-c2ccnc3ccccc23)n1 | 117 | 124 | 139 | 131 | 152 | 130 | 121 | 126 | 110 | 118 | 42.2 |  |  |  |  |  |  |  |  |  |  |  |  |  |  |  |  |  |  |  |  |  |  |
| N[S+](=O)([O-])c1cc(Cl)c(Cl)c([S+](N)(=O)[O-])c1 | 85.2 | 97 | 111 | 97.7 | 119 | 112 | 116 | 98.2 | 116 | 35.5 | 84.6 | 108 | 95.8 | 108 | 109 | 101 | 90.5 | 106 | 104 | 111 | 39.1 | 88.9 | 102 | 86 | 98.8 | 101 | 106 | 97.9 | 99.5 | 105 | 107 | 35.6 | 87.1 |
| CNC1[C@@H](O)C(O[C@@H]2C(O)C(O[C@H]3O[C@H]([C@@H](C)NC)CC[C@H]3N)[C@@H](N)C[C@H]2N)OC[C@]1(C)O (stereo partly specified) | 105 | 120 | 94.2 | 101 | 92.2 | 103 | 97.9 | 83.3 | 90.4 | 86.1 | 98 | 99.8 | 96.4 | 99.2 | 95.1 | 113 | 106 | 93.2 | 97.7 | 92.9 | 88.5 | 80.8 | 102 | 101 | 98.4 | 106 | 99.3 | 104 | 106 | 108 | 85.7 | 114 | 91.7 |
| CC(=O)O[C@@]1(CC[C@H]2[C@@H]3\C=C(C)/C4=C/C(=O)CC[C@]4(C)[C@H]3CC[C@]12C)C(C)=O | 89.3 | 83.8 | 86.7 | 97.6 | 93.5 | 101 | 100 | 104 | 95 | 106 | 99.7 | 79.1 | 80 | 82 | 82.7 | 105 | 99.4 | 95.8 | 99.2 | 108 | 98.4 | 104 | 96.5 | 96.7 | 104 | 109 | 101 | 100 | 107 | 115 | 96.2 | 108 | 81.7 |
| CO[C@H]1C[C@@H]2CC[C@@H](C)[C@@](O)(O2)C(=O)C(=O)N2CCCC[C@H]2C(=O)O[C@H]([C@H](C)C[C@@H]2CC[C@@H](OC(=O)C(C)(CO)CO)[C@H](OC)C2)CC(=O)[C@H](C)/C=C(\C)[C@@H](O)[C@@H](OC)C(=O)[C@H](C)C[C@H](C)/C=C/C=C/C=C/1C | 71.2 | 78.2 | 70.1 | 61.6 | 60.5 | 56.3 | 57.7 | 52.4 | 50.5 | 27.3 | 15.7 | 80.2 | 93.3 | 88 | 77.7 | 76.5 | 74.5 | 64.7 | 55.4 | 57.7 | 49.1 | 41.6 | 87.4 | 97.1 | 91.2 | 73.1 | 84.6 | 83.1 | 64.4 | 61.8 | 67.4 | 58.4 | 23.2 |
| CC1=C(C=CC=C1)N2\C(=N/C3=C(C(=CC=C3)C)C2=O)C[N]4N=CC5=C4N=CN=C5N | 100 | 124 | 141 | 113 | 113 | 136 | 135 | 135 | 124 | 131 | 119 | 99.5 | 117 | 119 | 128 | 124 | 128 | 121 | 123 | 125 | 117 | 121 |  |  |  |  |  |  |  |  |  |  |  |
| Cc1ncc(OC[C@@]2(c3cccc(F)c3)C[C@H]2C(=O)Nc2ccc(F)cn2)c(C)n1 | 113 | 111 | 102 | 104 | 103 | 133 | 136 | 51.1 | 97.3 | 88.4 | 104 | 75.3 | 84.5 | 97.6 | 96 | 95.3 | 91.7 | 105 | 96 | 98.3 | 98.7 | 78.3 | 85.3 | 107 | 98.1 | 90.8 | 100 | 104 | 108 | 118 | 122 | 108 | 82.6 |
| O=C1C[C@@H](c2ccc(O)cc2)Oc2cc(O)cc(O)c21 | 102 | 91.4 | 79.3 | 83.3 | 91.7 | 83 | 64.5 | 77.7 | 67.2 | 80.4 | 64 | 123 | 115 | 122 | 119 | 119 | 118 | 125 | 110 | 116 | 120 | 106 | 124 | 116 | 130 | 123 | 124 | 114 | 122 | 115 | 121 | 139 | 88.5 |
| Clc1cc(Cl)cc(CNc2ncncc2-c2ccc3c(c2)OCO3)c1 | 100 | 97.4 | 98.4 | 94.5 | 92.7 | 110 | 103 | 86.6 | 92.3 | 86.6 | 5.5 | 93.3 | 101 | 95.7 | 97.4 | 89 | 104 | 92.2 | 105 | 90.4 | 89.1 | 29.7 | 90.5 | 95.3 | 102 | 99.7 | 90.5 | 96.8 | 80.4 | 100 | 105 | 86.2 | 28.3 |
| O=C1Nc2ccc(Cl)cc2[C@@](C#CC2CC2)(C(F)(F)F)O1 | 71.8 | 69.8 | 82.2 | 84.9 | 89.6 | 84.6 | 84.4 | 87.8 | 85.9 | 91.6 | 63.7 | 65.1 | 74 | 86.3 | 95 | 86 | 88.4 | 88.8 | 80.2 | 88.9 | 96 | 93.4 | 62.1 | 70 | 89.5 | 81.2 | 82.7 | 78.9 | 85.6 | 81.5 | 81.8 | 84.8 | 54.7 |
| NC1=NC=C(C=C1)C2=CC=C3N=CC\4=C(N(C(=O)\C=C4)C5=CC(=CC=C5)C(F)(F)F)C3=C2 | 84.7 | 81.8 | 74.2 | 57.2 | 42.2 | 27.9 | 21.8 | 24.8 | 8.57 | 13.8 | 7.9 | 67.9 | 65.8 | 53.2 | 46.5 | 37.5 | 24.7 | 28.6 | 24.3 | 13.3 | 8.87 | 14.3 | 70.5 | 66.7 | 46.2 | 44.4 | 34.8 | 23.6 | 21.6 | 22.5 | 5.98 | 5.05 | 8.96 |
| CC(C)[C@@H](C[S+](=O)([O-])C(C)C)N1C(=O)[C@@](C)(CC(=O)O)C[C@H](c2cccc(Cl)c2)[C@H]1c1ccc(Cl)cc1 |  |  |  |  |  |  |  |  |  |  |  | 124 | 107 | 125 | 117 | 115 | 106 | 85.9 | 77.1 | 54.3 | 31.8 | 18.7 | 127 | 109 | 121 | 110 | 128 | 113 | 100 | 70.9 | 47.8 | 26.5 | 18.5 |
| CCC(=O)OCC(=O)[C@@]1(OC(=O)CC)[C@@H](C)C[C@H]2[C@@H]3CCC4=CC(=O)C=C[C@]4(C)[C@@]3(F)[C@@H](O)C[C@@]21C | 104 | 114 | 116 | 114 | 116 | 95.6 | 87.3 | 71.5 | 79.4 | 69.9 | 50.3 | 78.1 | 99.1 | 93.2 | 98.5 | 100 | 102 | 84.2 | 90.7 | 91.8 | 70.2 | 61.2 | 116 | 115 | 126 | 112 | 115 | 88.5 | 92.6 | 75.3 | 69.7 | 65.9 | 48.8 |
| CN(C)C(=O)c1ccc([S+](=O)([O-])c2ccc(NC(=O)[C@@](C)(O)C(F)(F)F)c(Cl)c2)cc1 | 95.3 | 122 | 110 | 109 | 124 | 108 | 112 | 123 | 120 | 24.3 | 4.66 | 98.1 | 105 | 104 | 112 | 110 | 104 | 129 | 120 | 118 | 116 | 80 | 99.3 | 98.8 | 108 | 102 | 107 | 88 | 103 | 111 | 111 | 72.8 | 20.9 |
| CCOC(=O)[C@H](CCc1ccccc1)N[C@@H](C)C(=O)N1CCC[C@H]1C(=O)O | 106 | 112 | 104 | 109 | 106 | 112 | 96.6 | 94.5 | 113 | 120 | 94.8 | 107 | 110 | 102 | 97.3 | 119 | 123 | 107 | 115 | 113 | 112 | 113 | 119 | 105 | 108 | 109 | 111 | 103 | 94.4 | 101 | 103 | 99.2 | 98.5 |
